Measured values from BindingDB's records for patent US20240025884 (Dong-A St Co., 2024).

Target: eIF-2-alpha kinase GCN2 (Homo sapiens, UniProt Q9P2K8)
Test: Biochemical Assay
Procedure: 384-well (Greiner #784075) (or 1536-well [Greiner #782075]) plates containing 60 nl (or 20 nl for 1536-well) of compound in 100% DMSO (10 concentrations serially diluted 3.16-fold) were prepared. Two copies of plates were used one for the GCN2 assay and a second for an artifact plate. Working reagents were prepared as follows reaction buffer: Tris pH 7.5 20 mM, MgCl2 5 mM, DTT 1 mM, Brij-35 0.005%, EGTA 0.5 mM in water; 2 enzyme solution: GCN2 (produced in-house) 1.6 nM in reaction buffer; 2 substrate solution: GFP-eIFS1 (Thermo Fisher Scientific, PV4809) 50 nM, ATP 0.2 mM, tRNA 0.4 mg/ml in reaction buffer; p-GFP-eIF2S1 (artifact) solution: p-GFP-eIFS1 (produced by incubation of 100 nM GFP-eIF2S1 in reaction buffer with 100 uM ATP and 1 nM PERK KD enzyme for 3 hr at room temperature) 2 nM in reaction buffer; 3 stop/antibody solution: p-GFP-EIF2S1 Th-Ab (Thermo Fisher Scientific, PV4816) 6 nM, AZ13933939 3 uM, BSA 3% in reaction buffer. Reagents were loaded onto a liquid dispenser (Certus FLEX, Trajan Scientific and Medical), and 3 ul (1 ul for 1536-well) of 2 enzyme solution, followed by 3 ul (1 ul for 1536-well) of 2 substrate solution was added to the plates. When small numbers of plates were processed, the enzyme solution was added first to all plates, then the valve used for the substrate solution was primed immediately prior to use. […]

Chain of eIF-2-alpha kinase GCN2 (Q9P2K8 whole entry): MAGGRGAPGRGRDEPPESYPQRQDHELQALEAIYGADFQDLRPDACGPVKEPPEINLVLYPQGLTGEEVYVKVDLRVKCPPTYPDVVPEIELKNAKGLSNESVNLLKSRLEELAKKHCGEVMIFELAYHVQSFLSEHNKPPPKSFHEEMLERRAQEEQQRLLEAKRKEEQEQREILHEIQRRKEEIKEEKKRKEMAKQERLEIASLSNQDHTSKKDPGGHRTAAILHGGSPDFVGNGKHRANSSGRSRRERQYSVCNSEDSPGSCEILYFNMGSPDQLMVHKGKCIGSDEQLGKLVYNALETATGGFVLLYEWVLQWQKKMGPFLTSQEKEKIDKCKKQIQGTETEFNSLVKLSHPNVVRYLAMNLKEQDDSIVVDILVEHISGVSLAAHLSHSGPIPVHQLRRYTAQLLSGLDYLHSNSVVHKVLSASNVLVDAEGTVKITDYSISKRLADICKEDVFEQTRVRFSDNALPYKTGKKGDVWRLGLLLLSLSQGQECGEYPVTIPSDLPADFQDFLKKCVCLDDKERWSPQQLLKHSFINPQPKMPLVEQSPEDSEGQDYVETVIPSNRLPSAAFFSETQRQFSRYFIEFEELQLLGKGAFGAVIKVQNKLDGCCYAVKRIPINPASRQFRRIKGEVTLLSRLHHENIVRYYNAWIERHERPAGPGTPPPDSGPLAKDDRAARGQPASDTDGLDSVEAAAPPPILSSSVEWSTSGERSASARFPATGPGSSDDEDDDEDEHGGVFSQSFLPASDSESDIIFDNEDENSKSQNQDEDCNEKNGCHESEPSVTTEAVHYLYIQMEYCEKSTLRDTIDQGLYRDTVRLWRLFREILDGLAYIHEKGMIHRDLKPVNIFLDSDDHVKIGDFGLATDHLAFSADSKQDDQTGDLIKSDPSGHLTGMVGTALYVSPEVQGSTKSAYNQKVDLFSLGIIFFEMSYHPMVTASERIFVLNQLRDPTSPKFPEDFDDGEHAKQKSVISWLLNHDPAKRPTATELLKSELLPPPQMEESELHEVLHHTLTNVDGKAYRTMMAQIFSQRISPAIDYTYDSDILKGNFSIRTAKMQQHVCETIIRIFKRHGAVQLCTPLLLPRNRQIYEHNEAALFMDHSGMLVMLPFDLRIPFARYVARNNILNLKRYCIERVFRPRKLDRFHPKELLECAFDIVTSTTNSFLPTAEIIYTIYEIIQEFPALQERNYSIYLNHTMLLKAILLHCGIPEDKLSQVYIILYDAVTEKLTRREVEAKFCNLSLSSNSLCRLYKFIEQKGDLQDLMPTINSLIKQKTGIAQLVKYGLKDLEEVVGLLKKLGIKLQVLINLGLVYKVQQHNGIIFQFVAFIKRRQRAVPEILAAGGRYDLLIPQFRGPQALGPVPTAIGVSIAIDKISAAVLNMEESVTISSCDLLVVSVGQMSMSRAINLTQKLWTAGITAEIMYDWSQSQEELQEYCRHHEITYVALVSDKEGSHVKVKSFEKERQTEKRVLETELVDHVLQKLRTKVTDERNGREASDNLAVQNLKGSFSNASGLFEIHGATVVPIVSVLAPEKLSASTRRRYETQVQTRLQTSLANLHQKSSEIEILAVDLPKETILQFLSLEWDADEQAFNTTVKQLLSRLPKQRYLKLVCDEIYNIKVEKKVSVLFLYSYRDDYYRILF

Row | IC50 [nM] | SMILES
1 | < 10 | Cc1cnc(Nc2cc(C)n(C)n2)nc1-c1c[nH]c2c(N3Cc4c(/C=C/C(=O)NC(C)C)cccc4C3=O)cccc12 [US20240025884, Example 370]
2 | < 10 | Cc1cc(Nc2ncc(Cl)c(-c3c[nH]c4c(NC(=O)CN5CC[C@H](Oc6ccnc(NC7CC7)n6)C5)cccc34)n2)nn1C [US20240025884, Example 10]
